Results published in patent US20050197350A1, “Novel quinoline, tetrahydroquinazoline, and pyrimidine derivatives and methods of treatment related to the use thereof” (TAISHO PHARMACEUTICAL CO., LTD., priority 2003, published 2005).

system: MCH receptors; assay: MCH receptor activity class (method not given); conditions: class by percent of control at 10^−7 M or IC50

Row | SMILES | class
1 | Cc1cc(N(C)C)nc(N[C@H]2CC[C@@H](C(=O)NCc3cccc(Cl)c3)CC2)n1 [compound 2812, cis-N-(3-chlorobenzyl)-4-{[4-(dimethylamino)-6-methylpyrimidin-2-yl]amino}cyclohexanecarboxamide] | 1 (Class 1: The value of percent of control at 10^−7 M was less than 40% or the value of IC50 was less than 50 nM.)
2 | Cc1cc(N(C)C)nc(N[C@H]2CC[C@@H](C(=O)NCc3cccc(C(F)(F)F)c3)CC2)n1 [compound 2813, cis-4-{[4-(dimethylamino)-6-methylpyrimidin-2-yl]amino}-N-[3-(trifluoromethyl)benzyl]cyclohexanecarboxamide] | 2 (Class 2: The value of percent of control at 10^−7 M was from 40% to 60% or the value of IC′50 was from 50 nM to 200 nM.)
3 | Cc1cc(N(C)C)nc(N[C@H]2CC[C@@H](C(=O)NCc3cc(C(F)(F)F)cc(C(F)(F)F)c3)CC2)n1 [compound 2814, cis-N-[3,5-bis(trifluoromethyl)benzyl]-4-{[4-(dimethylamino)-6-methylpyrimidin-2-yl]amino}cyclohexanecarboxamide] | 1 (Class 1: The value of percent of control at 10^−7 M was less than 40% or the value of IC50 was less than 50 nM.)
4 | COc1cccc(CNC(=O)[C@H]2CC[C@@H](Nc3nc(C)cc(N(C)C)n3)CC2)c1 [compound 2815, cis-4-{[4-(dimethylamino)-6-methylpyrimidin-2-yl]amino}-N-(3-methoxybenzyl)cyclohexanecarboxamide] | 1 (Class 1: The value of percent of control at 10^−7 M was less than 40% or the value of IC50 was less than 50 nM.)
5 | Cc1cc(N(C)C)nc(N[C@H]2CC[C@@H](C(=O)NCc3ccc(Cl)cc3)CC2)n1 [compound 2816, cis-N-(4-chlorobenzyl)-4-{[4-(dimethylamino)-6-methylpyrimidin-2-yl]amino}cyclohexanecarboxamide] | 1 (Class 1: The value of percent of control at 10^−7 M was less than 40% or the value of IC50 was less than 50 nM.)
6 | Cc1cc(N(C)C)nc(N[C@H]2CC[C@@H](C(=O)NCc3ccc(Cl)c(Cl)c3)CC2)n1 [compound 2817, cis-N-(3,4-dichlorobenzyl)-4-{[4-(dimethylamino)-6-methylpyrimidin-2-yl]amino}cyclohexanecarboxamide] | 1 (Class 1: The value of percent of control at 10^−7 M was less than 40% or the value of IC50 was less than 50 nM.)
7 | Cc1cc(N(C)C)nc(N[C@H]2CC[C@@H](C(=O)NCc3ccc(F)cc3F)CC2)n1 [compound 2818, cis-N-(2,4-difluorobenzyl)-4-{[4-(dimethylamino)-6-methylpyrimidin-2-yl]amino}cyclohexanecarboxamide] | 1 (Class 1: The value of percent of control at 10^−7 M was less than 40% or the value of IC50 was less than 50 nM.)
8 | Cc1cc(N(C)C)nc(N[C@H]2CC[C@@H](C(=O)NCc3cc(F)ccc3F)CC2)n1 [compound 2819, cis-N-(2,5-difluorobenzyl)-4-{[4-(dimethylamino)-6-methylpyrimidin-2-yl]amino}cyclohexanecarboxamide] | 1 (Class 1: The value of percent of control at 10^−7 M was less than 40% or the value of IC50 was less than 50 nM.)
9 | Cc1cc(N(C)C)nc(N[C@H]2CC[C@@H](C(=O)NCc3cccc(F)c3F)CC2)n1 [compound 2820, cis-N-(2,3-difluorobenzyl)-4-{[4-(dimethylamino)-6-methylpyrimidin-2-yl]amino}cyclohexanecarboxamide] | 1 (Class 1: The value of percent of control at 10^−7 M was less than 40% or the value of IC50 was less than 50 nM.)
10 | Cc1cc(N(C)C)nc(N[C@H]2CC[C@@H](C(=O)NCc3ccc(Br)cc3F)CC2)n1 [compound 2821, cis-N-(4-bromo-2-fluorobenzyl)-4-{[4-(dimethylamino)-6-methylpyrimidin-2-yl]amino}cyclohexanecarboxamide] | 1 (Class 1: The value of percent of control at 10^−7 M was less than 40% or the value of IC50 was less than 50 nM.)
11 | Cc1cccc(CNC(=O)[C@H]2CC[C@@H](Nc3nc(C)cc(N(C)C)n3)CC2)c1 [compound 2822, cis-4-{[4-(dimethylamino)-6-methylpyrimidin-2-yl]amino}-N-(3-methylbenzyl)cyclohexanecarboxamide] | 1 (Class 1: The value of percent of control at 10^−7 M was less than 40% or the value of IC50 was less than 50 nM.)
12 | Cc1cc(N(C)C)nc(N[C@H]2CC[C@@H](C(=O)NCc3ccccc3OC(F)(F)F)CC2)n1 [compound 2823, cis-4-{[4-(dimethylamino)-6-methylpyrimidin-2-yl]amino}-N-[2-(trifluoromethoxy)benzyl]cyclohexanecarboxamide] | 1 (Class 1: The value of percent of control at 10^−7 M was less than 40% or the value of IC50 was less than 50 nM.)
13 | COc1cccc(C(=O)N[C@H]2CC[C@@H](Nc3nc(C)c(C)c(N(C)C)n3)CC2)c1 [compound 2824, N-(cis-4-{[4-(dimethylamino)-5,6-dimethylpyrimidin-2-yl]amino}cyclohexyl)-3-methoxybenzamide] | 1 (Class 1: The value of percent of control at 10^−7 M was less than 40% or the value of IC50 was less than 50 nM.)
14 | Cc1nc(N[C@H]2CC[C@@H](NC(=O)c3cc(O)nc(O)c3)CC2)nc(N(C)C)c1C [compound 2825] | 3 (Class 3 The value of percent of control at 10^−7 M was more than 60% or the value of IC50 was more than 200 nM.)
15 | Cc1nc(N[C@H]2CC[C@@H](NC(=O)c3cnccn3)CC2)nc(N(C)C)c1C [compound 2826] | 3 (Class 3 The value of percent of control at 10^−7 M was more than 60% or the value of IC50 was more than 200 nM.)
16 | Cc1nc(N[C@H]2CC[C@@H](NC(=O)c3ccc(O)nc3)CC2)nc(N(C)C)c1C [compound 2827] | 3 (Class 3 The value of percent of control at 10^−7 M was more than 60% or the value of IC50 was more than 200 nM.)
17 | Cc1cc(C(=O)N[C@H]2CC[C@@H](Nc3nc(C)c(C)c(N(C)C)n3)CC2)no1 [compound 2828, N-(cis-4-{[4-(dimethylamino)-5,6-dimethylpyrimidin-2-yl]amino}cyclohexyl)-5-methylisoxazole-3-carboxamide] | 2 (Class 2: The value of percent of control at 10^−7 M was from 40% to 60% or the value of IC′50 was from 50 nM to 200 nM.)
18 | Cc1nc(C(=O)N[C@H]2CC[C@@H](Nc3nc(C)c(C)c(N(C)C)n3)CC2)co1 [compound 2830, N-(cis-4-{[4-(dimethylamino)-5,6-dimethylpyrimidin-2-yl]amino}cyclohexyl)-2-methyl-1,3-oxazole-4-carboxamide] | 2 (Class 2: The value of percent of control at 10^−7 M was from 40% to 60% or the value of IC′50 was from 50 nM to 200 nM.)
19 | Cc1ncccc1C(=O)N[C@H]1CC[C@@H](Nc2nc(C)c(C)c(N(C)C)n2)CC1 [compound 2831] | 3 (Class 3 The value of percent of control at 10^−7 M was more than 60% or the value of IC50 was more than 200 nM.)
20 | COc1ccc(C(=O)N[C@H]2CC[C@@H](Nc3nc(C)c(C)c(N(C)C)n3)CC2)c(OC)n1 [compound 2832, N-(cis-4-{[4-(dimethylamino)-5,6-dimethylpyrimidin-2-yl]amino}cyclohexyl)-2,6-dimethoxynicotinamide] | 1 (Class 1: The value of percent of control at 10^−7 M was less than 40% or the value of IC50 was less than 50 nM.)
21 | Cc1nc(N[C@H]2CC[C@@H](NC(=O)c3nccnc3N)CC2)nc(N(C)C)c1C [compound 2833] | 2 (Class 2: The value of percent of control at 10^−7 M was from 40% to 60% or the value of IC′50 was from 50 nM to 200 nM.)
